From US10829520B2, “Beta-hairpin peptidomimetics” (POLYPHOR AG, priority 2015, dated 2020)
Where a SMILES comes first, the peptide text is derived from it. Bridges are numbered along the chain shown (N, C = ends). [ ]: non-standard residue; d: D form. NMeW = CN[C@@H](Cc1c[nH]c2ccccc12)C(=O)O; Tle = CC(C)(C)[C@H](N)C(=O)O; Nle = CCCC[C@H](N)C(=O)O; Orn = NCCC[C@H](N)C(=O)O; Dab = NCC[C@H](N)C(=O)O; Dap = NC[C@H](N)C(=O)O; Sar = CNCC(=O)O

Legend:
Type in all cases: cell-based
[1] = test system: Klebsiella pneumoniae SSI #3010; conditions: SSI #3010
In short: (§1)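 MIC in μg/mL; CLSI microdilution; cation-adjusted Mueller-Hinton II with Polysorbate 80 (0.002%); 10^6 CFU/mL; 35° C, 18-20 h.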

[2] = test system: Klebsiella pneumoniae 968733; conditions: 968733
Escherichia coli 926415 = conditions: 926415
[3] = test system: Pseudomonas aeruginosa ATCC 27853; conditions: ATCC 27853
In short: as §1

[4] = test system: Escherichia coli ATCC 25922; conditions: ATCC 25922
In short: as §1

[5] = test system: Acinetobacter baumannii 872842; conditions: 872842
[6] = test system: Acinetobacter baumannii DSM 30008; conditions: DSM 30008
In short: as §1

[7] = test system: human red blood cells (hRBC); test: Hemolysis of human red blood cells; conditions: red cells of human, 1 h, 100 μg/mL
In short: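 Percent hemolysis = OD540 of peptide-treated supernatant relative to the 2.5% Triton X-100 (100%) control, PBS containing 0.001% acetic acid defining 0%. Peptides tested at 100 μg/mL against 20% (v/v) washed human RBC, 1 h, 37 °C, 300 rpm.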

SMILES	Klebsiella pneumoniae SSI #3010 MIC [1]	Klebsiella pneumoniae 968733 MIC [2]	Escherichia coli 926415 MIC (Escherichia coli 926415)	Pseudomonas aeruginosa ATCC 27853 MIC [3]	Escherichia coli ATCC 25922 MIC [4]	Acinetobacter baumannii 872842 MIC [5]	Acinetobacter baumannii DSM 30008 MIC [6]	Hemolysis at 100 μg/mL [7]
CCCC[C@@H]1NC(=O)[C@@H]2CCCN2C(=O)[C@H]2CCCN2C(=O)[C@H](C)NC(=O)[C@H](CO)NC(=O)[C@H](C(C)C)NC(=O)[C@@H](NC(=O)[C@@H](N)Cc2c[nH]c3ccccc23)CSSC[C@@H](C(=O)N(C)CC(=O)N[C@@H](CCN)C(=O)N[C@H](C(=O)N[C@@H](CCN)C(=O)N[C@H]2CCNC(=O)[C@H]([C@@H](C)O)NC(=O)[C@H](CCN)NC(=O)[C@H](CCN)NC(=O)[C@H](CC(C)C)NC(=O)[C@@H](CC(C)C)NC(=O)[C@H](CCN)NC2=O)[C@@H](C)O)NC(=O)[C@H](Cc2ccc(O)cc2)NC(=O)[C@H](CN)NC1=O [Ex. 141] (H-WCVSA[dP]P[Nle][Dap]YC[Sar][Dab]T[Dab][Dab][Dab][dL]L[Dab][Dab]T; disulfide 2-11; lactam 16-C)	0.125 µg/mL	2 µg/mL	0.125 µg/mL	2 µg/mL	0.0625 µg/mL	0.125 µg/mL	0.125 µg/mL	<1%
CC(=O)N[C@@H](Cc1c[nH]c2ccccc12)C(=O)N[C@H]1CSSC[C@@H](C(=O)N[C@@H](CCCN)C(=O)N[C@H](C(=O)N[C@@H](CCN)C(=O)N[C@@H](CCN)C(=O)N[C@H]2CCNC(=O)[C@H]([C@@H](C)O)NC(=O)[C@H](CCN)NC(=O)[C@H](CCN)NC(=O)[C@H](CC(C)C)NC(=O)[C@@H](Cc3ccccc3)NC(=O)[C@H](CCN)NC2=O)[C@@H](C)O)NC(=O)[C@H](Cc2ccc(O)cc2)NC(=O)[C@H](CO)NC(=O)[C@H](CC(C)C)NC(=O)[C@@H]2CCCN2C(=O)[C@H]2CCCN2C(=O)[C@H](CN)NC(=O)[C@H](C)NC(=O)[C@H](C(C)(C)C)NC1=O [Ex. 142] (Ac-WC[Tle]A[Dap][dP]PLSYC[Orn]T[Dab][Dab][Dab][Dab][dF]L[Dab][Dab]T; disulfide 2-11; lactam 16-C)	0.5 µg/mL	1 µg/mL	0.25 µg/mL	0.25 µg/mL	0.5 µg/mL	0.125 µg/mL	0.25 µg/mL	<1%
CN[C@@H](Cc1c[nH]c2ccccc12)C(=O)N[C@H]1CSSC[C@@H](C(=O)N(C)CC(=O)N[C@@H](CCN)C(=O)N[C@H](C(=O)N[C@@H](CCN)C(=O)N[C@H]2CCNC(=O)[C@H]([C@@H](C)O)NC(=O)[C@H](CCN)NC(=O)[C@H](CCN)NC(=O)[C@H](CC(C)C)NC(=O)[C@@H](CC(C)C)NC(=O)[C@H](CCN)NC2=O)[C@@H](C)O)NC(=O)[C@H](Cc2ccc(O)cc2)NC(=O)[C@H](CN)NC(=O)[C@H](CC(C)C)NC(=O)[C@@H]2CCCN2C(=O)[C@H]2CCCN2C(=O)[C@H](Cc2ccc(O)cc2)NC(=O)[C@H](C)NC(=O)[C@H](C(C)C)NC1=O [Ex. 143] (H-[NMeW]CVAY[dP]PL[Dap]YC[Sar][Dab]T[Dab][Dab][Dab][dL]L[Dab][Dab]T; disulfide 2-11; lactam 16-C)	0.125 µg/mL	0.125 µg/mL	0.0625 µg/mL	0.25 µg/mL	0.03125 µg/mL	0.0625 µg/mL	0.0625 µg/mL	<1%
CC(=O)N[C@@H](Cc1c[nH]c2ccccc12)C(=O)N[C@H]1CSSC[C@@H](C(=O)N[C@@H](CCCN)C(=O)N[C@H](C(=O)N[C@@H](CCN)C(=O)N[C@@H](CCN)C(=O)N[C@H]2CCNC(=O)[C@H]([C@@H](C)O)NC(=O)[C@H](CCN)NC(=O)[C@H](CCN)NC(=O)[C@H](CC(C)C)NC(=O)[C@@H](Cc3ccccc3)NC(=O)[C@H](CCN)NC2=O)[C@@H](C)O)NC(=O)[C@H](Cc2ccc(O)cc2)NC(=O)[C@H](CO)NC(=O)[C@H]([C@@H](C)O)NC(=O)[C@@H]2CCCN2C(=O)[C@H]2CCCN2C(=O)[C@H](Cc2ccc(O)cc2)NC(=O)[C@H](C)NC(=O)[C@H](C(C)(C)C)NC1=O [Ex. 144] (Ac-WC[Tle]AY[dP]PTSYC[Orn]T[Dab][Dab][Dab][Dab][dF]L[Dab][Dab]T; disulfide 2-11; lactam 16-C)	0.25 µg/mL	1 µg/mL	0.5 µg/mL	0.25 µg/mL	0.25 µg/mL	0.25 µg/mL	0.125 µg/mL	4%
CC(C)C[C@@H]1NC(=O)[C@@H](NC(=O)[C@@H](N)Cc2c[nH]c3ccccc23)CSSC[C@@H](C(=O)NCC(=O)N[C@@H](CCN)C(=O)N[C@H](C(=O)N[C@@H](CCN)C(=O)N[C@H]2CCNC(=O)[C@H]([C@@H](C)O)NC(=O)[C@H](CCN)NC(=O)[C@H](CCN)NC(=O)[C@H](CC(C)C)NC(=O)[C@@H](CC(C)C)NC(=O)[C@H](CCN)NC2=O)[C@@H](C)O)NC(=O)[C@H](CC(C)C)NC(=O)[C@H](CO)NC(=O)[C@H](Cc2ccc(O)cc2)NC(=O)[C@@H]2CCCN2C(=O)[C@H]2CCCN2C(=O)[C@H]([C@@H](C)O)NC(=O)[C@H](C)NC1=O [Ex. 145] (H-WCLAT[dP]PYSLCG[Dab]T[Dab][Dab][Dab][dL]L[Dab][Dab]T; disulfide 2-11; lactam 16-C)	0.0625 µg/mL	0.5 µg/mL	0.125 µg/mL	0.5 µg/mL	0.0625 µg/mL	0.0625 µg/mL	0.03125 µg/mL	3%
CC(=O)N[C@@H](Cc1c[nH]c2ccccc12)C(=O)N[C@H]1CSSC[C@@H](C(=O)N[C@@H](CCCN)C(=O)N[C@H](C(=O)N[C@@H](CCN)C(=O)N[C@@H](CCN)C(=O)N[C@H]2CCNC(=O)[C@H]([C@@H](C)O)NC(=O)[C@H](CCN)NC(=O)[C@H](CCN)NC(=O)[C@H](CC(C)C)NC(=O)[C@@H](Cc3ccccc3)NC(=O)[C@H](CCN)NC2=O)[C@@H](C)O)NC(=O)[C@H](Cc2ccc(O)cc2)NC(=O)[C@H](CC(=O)O)NC(=O)[C@H](CC(C)C)NC(=O)[C@@H]2CCCN2C(=O)[C@H]2CCCN2C(=O)[C@H](CO)NC(=O)[C@H](Cc2ccc(O)cc2)NC(=O)[C@H](C(C)(C)C)NC1=O [Ex. 146] (Ac-WC[Tle]YS[dP]PLDYC[Orn]T[Dab][Dab][Dab][Dab][dF]L[Dab][Dab]T; disulfide 2-11; lactam 16-C)	0.25 µg/mL	4 µg/mL	4 µg/mL	0.5 µg/mL	0.25 µg/mL	1 µg/mL	0.125 µg/mL	3%
